Patent US7179824B2, “Arthropodicidal anthranilamides” (E. I. du Pont de Nemours and Company, priority 2001, dated 2007)

melting point: 173 to 176 °C
Compound: Cc1cc(Cl)cc(C(=O)NC(C)C)c1N(C(=O)c1cc(C(F)(F)F)n[nH]1)c1ncccc1Cl [Compound 4, N-[4-chloro-2-methyl-6-[[(1-methylethyl)amino]carbonyl]phenyl]-N-(3-chloro-2-pyridinyl)-3-(trifluoromethyl)-1H-pyrazole-5-carboxamide]
